{"source": "Sander's compilation of Henry's law constants (doi:10.1007/978-94-007-2275-0)", "origin": "cited, not measured here"}
{"experiment": "Henry solubility constant Hcp at 298.15 K (mol/(m3 Pa))", "conditions": "reference: Warneck and Williams (2012); cited value"}
{"compound": "[N]=O", "note": "[nitrogen monoxide]", "Henry solubility constant Hcp": "1.9e-05"}
{"compound": "[C-]#[O+]", "note": "[carbon monoxide]", "Henry solubility constant Hcp": "9.7e-06"}
{"compound": "O=C=S", "note": "[carbon oxide sulfide]", "Henry solubility constant Hcp": 0.00021}
{"compound": "FC(F)(F)F", "note": "[tetrafluoromethane]", "Henry solubility constant Hcp": "2.1e-06"}
{"compound": "[Ar]", "note": "[argon]", "Henry solubility constant Hcp": "1.4e-05"}
{"compound": "[N-]=[N+]=O", "note": "[dinitrogen monoxide]", "Henry solubility constant Hcp": 0.00024}
{"compound": "COO", "note": "[methyl hydroperoxide]", "Henry solubility constant Hcp": 2.9}
{"compound": "[O]N=O", "note": "[nitrogen dioxide]", "Henry solubility constant Hcp": "9.9e-05"}
{"compound": "CC(=O)OO[N+](=O)[O-]", "note": "[peroxyacetyl nitrate]", "Henry solubility constant Hcp": 0.029}
{"compound": "O=O", "note": "[oxygen]", "Henry solubility constant Hcp": "1.2e-05"}
{"compound": "OO", "note": "[hydrogen peroxide]", "Henry solubility constant Hcp": 910}
{"compound": "S=C=S", "note": "[carbon disulfide]", "Henry solubility constant Hcp": 0.00061}
{"compound": "FC(F)(Cl)Cl", "note": "[dichlorodifluoromethane]", "Henry solubility constant Hcp": "3e-05"}
{"compound": "CSC", "note": "[dimethyl sulfide]", "Henry solubility constant Hcp": 0.0056}
{"compound": "FS(F)(F)(F)(F)F", "note": "[sulfur hexafluoride]", "Henry solubility constant Hcp": "2.4e-06"}
